Measured values: article PMC4396868 (Birth defects research. Part A, Clinical and molecular …, 2014)

Molecular target: bovine folate binding protein (bFBP) (Bos taurus, UniProt P02702)
Assay: competitive binding ELISA, displacement of folic acid-HRP, chemiluminescence

Sequence of bovine folate binding protein (bFBP) (P02702 20-234): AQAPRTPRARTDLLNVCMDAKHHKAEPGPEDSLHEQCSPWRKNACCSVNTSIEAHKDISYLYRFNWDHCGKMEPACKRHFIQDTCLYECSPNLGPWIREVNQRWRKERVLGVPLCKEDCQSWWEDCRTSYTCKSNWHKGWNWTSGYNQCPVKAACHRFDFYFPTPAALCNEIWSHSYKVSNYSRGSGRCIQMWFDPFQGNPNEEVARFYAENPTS

In the case of `CCCC(CCC)C(=O)O` [Valproic acid], the IC50 is reported as 269 mM.
